{"source": "patent US20050229276A1", "about": "“Method of producing cyclamen root tuber and method of proliferating cyclamen using the same” (Tokyo University of Agricultural, priority 2002, published 2005)", "test_system": "explants from petioles of cyclamen (species: Flamenco)", "experiment": "Culture of explants from petioles (comparative)", "type": "cell-based", "settings": "NAA 0.05 mg/l, 20 explants planted, 30 days", "experimental": "For comparison, the explants from leaves and petioles of cyclamen (species: Flamenco) were cultured for 30 days by changing the contents of BA and sucrose in a basal medium prepared by adding 0.05 mg/l of NAA and 6 g/l of agar to the ⅓ MS medium and having a pH of 7.0. In all the cases, the root tubers were hardly enlarged by culture and rarely regenerated and accordingly, a clonal plant could not be obtained with high reproducibility."}
{"smiles": "c1ccc(CNc2ncnc3[nH]cnc23)cc1", "note": "[BA, benzylaminopurine]", "values": [{"measurement": "Number of enlarged explants", "setting": "BA 0.05 mg/l, sucrose 30 g/m", "result": 2}, {"measurement": "Number of regenerate explants", "setting": "BA 0.05 mg/l, sucrose 30 g/m", "result": 0}, {"measurement": "Number of enlarged explants", "setting": "BA 0.05 mg/l, sucrose 50 g/m", "result": 1}, {"measurement": "Number of regenerate explants", "setting": "BA 0.05 mg/l, sucrose 50 g/m", "result": 0}, {"measurement": "Number of enlarged explants", "setting": "BA 0.05 mg/l, sucrose 70 g/m", "result": 1}, {"measurement": "Number of regenerate explants", "setting": "BA 0.05 mg/l, sucrose 70 g/m", "result": 0}, {"measurement": "Number of enlarged explants", "setting": "BA 0.05 mg/l, sucrose 90 g/m", "result": 0}, {"measurement": "Number of regenerate explants", "setting": "BA 0.05 mg/l, sucrose 90 g/m", "result": 0}, {"measurement": "Number of enlarged explants", "setting": "BA 0.1 mg/l, sucrose 30 g/m", "result": 4}, {"measurement": "Number of regenerate explants", "setting": "BA 0.1 mg/l, sucrose 30 g/m", "result": 4}, {"measurement": "Number of enlarged explants", "setting": "BA 0.1 mg/l, sucrose 50 g/m", "result": 5}, {"measurement": "Number of regenerate explants", "setting": "BA 0.1 mg/l, sucrose 50 g/m", "result": 1}, {"measurement": "Number of enlarged explants", "setting": "BA 0.1 mg/l, sucrose 70 g/m", "result": 2}, {"measurement": "Number of regenerate explants", "setting": "BA 0.1 mg/l, sucrose 70 g/m", "result": 0}, {"measurement": "Number of enlarged explants", "setting": "BA 0.1 mg/l, sucrose 90 g/m", "result": 1}, {"measurement": "Number of regenerate explants", "setting": "BA 0.1 mg/l, sucrose 90 g/m", "result": 0}, {"measurement": "Number of enlarged explants", "setting": "BA 0.5 mg/l, sucrose 30 g/m", "result": 3}, {"measurement": "Number of regenerate explants", "setting": "BA 0.5 mg/l, sucrose 30 g/m", "result": 1}, {"measurement": "Number of enlarged explants", "setting": "BA 0.5 mg/l, sucrose 50 g/m", "result": 4}, {"measurement": "Number of regenerate explants", "setting": "BA 0.5 mg/l, sucrose 50 g/m", "result": 1}, {"measurement": "Number of enlarged explants", "setting": "BA 0.5 mg/l, sucrose 70 g/m", "result": 1}, {"measurement": "Number of regenerate explants", "setting": "BA 0.5 mg/l, sucrose 70 g/m", "result": 0}, {"measurement": "Number of enlarged explants", "setting": "BA 0.5 mg/l, sucrose 90 g/m", "result": 0}, {"measurement": "Number of regenerate explants", "setting": "BA 0.5 mg/l, sucrose 90 g/m", "result": 0}, {"measurement": "Number of enlarged explants", "setting": "BA 1 mg/l, sucrose 30 g/m", "result": 1}, {"measurement": "Number of regenerate explants", "setting": "BA 1 mg/l, sucrose 30 g/m", "result": 0}, {"measurement": "Number of enlarged explants", "setting": "BA 1 mg/l, sucrose 50 g/m", "result": 1}, {"measurement": "Number of regenerate explants", "setting": "BA 1 mg/l, sucrose 50 g/m", "result": 10}, {"measurement": "Number of enlarged explants", "setting": "BA 1 mg/l, sucrose 70 g/m", "result": 0}, {"measurement": "Number of regenerate explants", "setting": "BA 1 mg/l, sucrose 70 g/m", "result": 0}, {"measurement": "Number of enlarged explants", "setting": "BA 1 mg/l, sucrose 90 g/m", "result": 0}, {"measurement": "Number of regenerate explants", "setting": "BA 1 mg/l, sucrose 90 g/m", "result": 0}]}
